Twelve compounds from US12077503B2, “Substituted cyclic amides and their use as herbicides” (FMC CORPORATION, priority 2015, dated 2024) can be followed below.

Read-outs that look alike come from different tables or passages of the source.

Experiment in all cases: Test A postemergence
What all share (assay type): in vivo

For experiment [1], the system named is barnyardgrass (Echinochloa crus-galli). The conditions noted are these: Echinochloa crus-galli, post-emergence, 240 h; for pest or weed control at 125 g/ha: 125 g ai/ha; for pest or weed control at 500 g/ha: 500 g ai/ha, 0 to 100 scale, 0 is no effect, 100 is complete control, read-out: Barnyardgrass plant response rating. Put shortly:
(§1)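 Treatment is preemergence as a directed soil spray after planting, or postemergence at the one- to two-leaf stage, with test chemical in a non-phytotoxic solvent mixture plus surfactant. Plants stay in the greenhouse about 10 d before visual injury scoring on a 0 to 100 scale versus untreated controls.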

The test system of experiment [2] is blackgrass (Alopecurus myosuroides). The following applies: Alopecurus myosuroides, post-emergence, 240 h; for pest or weed control at 125 g/ha: 125 g ai/ha; for pest or weed control at 500 g/ha: 500 g ai/ha. Put shortly:
as §1

Another experiment concerns corn (Zea mays). The conditions noted are these: Zea mays, post-emergence, 240 h; for Corn plant response rating (crop injury, 0 = no effect, 100 = complete kill) at 125 g/ha / plant injury at 125 g/ha: 125 g ai/ha; for Corn plant response rating (crop injury, 0 = no effect, 100 = complete kill) at 125 g/ha: visual injury after approximately 10 d; for plant injury at 125 g/ha: read-out: Corn plant response rating (0 to 100 scale); for plant injury at 500 g/ha / Corn plant response rating (crop injury, 0 = no effect, 100 = complete kill) at 500 g/ha: 500 g ai/ha; for plant injury at 500 g/ha: 0 to 100 scale, 0 is no effect, 100 is complete control, read-out: Corn plant response rating; for Corn plant response rating (crop injury, 0 = no effect, 100 = complete kill) at 500 g/ha: visual injury, approx. 10 d. Put shortly:
as §1

Experiment [3] has as its system ragweed (common ragweed, Ambrosia elatior). The following applies: Ambrosia artemisiifolia, post-emergence, 240 h; for pest or weed control at 125 g/ha: 125 g ai/ha; for pest or weed control at 500 g/ha: 500 g ai/ha. Put shortly: as §1
In experiment [4] the test system is ryegrass, Italian (Italian ryegrass, Lolium multiflorum). The following applies: Lolium multiflorum, post-emergence, 240 h; for pest or weed control at 125 g/ha: 125 g ai/ha; for pest or weed control at 500 g/ha: 500 g ai/ha. Put shortly: as §1
Setting [5] is: postemergence, visual injury after approximately 10 d, 0 to 100 scale (0 no effect, 100 complete control), read-out: Plant response rating, Barnyardgrass.
Setting [6] is: postemergence, visual injury after approximately 10 d, 0 to 100 scale (0 no effect, 100 complete control), read-out: Plant response rating, Blackgrass.
Setting [7] is: postemergence, 0 to 100 scale (0 no effect, 100 complete control).
The mark [8] stands for this setting: postemergence, visual injury after approximately 10 d, 0 to 100 scale (0 no effect, 100 complete control), read-out: Plant response rating, Ragweed.
Setting [9] is: postemergence, visual injury after approximately 10 d, 0 to 100 scale (0 no effect, 100 complete control), read-out: Plant response rating, Ryegrass, Italian.
The mark [10] stands for this setting: postemergence, visual injury vs untreated controls after approx. 10 d, 0 = no effect, 100 = complete control, read-out: Barnyardgrass plant response rating (0 to 100 scale).
Setting [11] is: postemergence, visual injury vs untreated controls after approx. 10 d, 0 = no effect, 100 = complete control, read-out: Blackgrass plant response rating (0 to 100 scale).
Setting [12] is: postemergence, 0 to 100 scale, 0 is no effect, 100 is complete control, read-out: Blackgrass plant response rating.
The mark [13] stands for this setting: postemergence, visual injury vs untreated controls after approx. 10 d, 0 = no effect, 100 = complete control.
Where [14] appears, read: postemergence, visual injury vs untreated controls after approx. 10 d, 0 = no effect, 100 = complete control, read-out: Ragweed plant response rating (0 to 100 scale).
[15] abbreviates: postemergence, 0 to 100 scale, 0 is no effect, 100 is complete control, read-out: Ragweed plant response rating.
Setting [16] is: postemergence, visual injury vs untreated controls after approx. 10 d, 0 = no effect, 100 = complete control, read-out: Ryegrass, Italian plant response rating (0 to 100 scale).
Setting [17] is: postemergence, 0 to 100 scale, 0 is no effect, 100 is complete control, read-out: Ryegrass, Italian plant response rating.
The mark [18] stands for this setting: Postemergence, visual rating about 10 d after treatment, read-out: Blackgrass plant response rating (0 to 100 scale).
The mark [19] stands for this setting: Postemergence, visual injury, 0 to 100 scale (0 no effect, 100 complete control), approx. 10 d, read-out: Plant response rating, Blackgrass.
Where [20] appears, read: Postemergence, visual rating about 10 d after treatment.
The mark [21] stands for this setting: Postemergence, 0 to 100 scale (0 no effect, 100 complete control).
The mark [22] stands for this setting: Postemergence, visual rating about 10 d after treatment, read-out: Ragweed plant response rating (0 to 100 scale).
Where [23] appears, read: Postemergence, visual injury, 0 to 100 scale (0 no effect, 100 complete control), approx. 10 d, read-out: Plant response rating, Ragweed.
Setting [24] is: Postemergence, visual rating about 10 d after treatment, read-out: Ryegrass, Italian plant response rating (0 to 100 scale).
Setting [25] is: Postemergence, visual injury, 0 to 100 scale (0 no effect, 100 complete control), approx. 10 d, read-out: Plant response rating, Ryegrass, Italian.

Consider `CN1C[C@H](c2cc(F)cc(F)c2)[C@@H](C(=O)Nc2c(F)cccc2F)C1=O` [Compound 759], for which the pest or weed control at 125 g/ha in experiment [1] (setting [5]) was found to be 70%; in experiment [2] (setting [6]) it was 0%; in experiment [3] (setting [8]) it was 0%; in experiment [4] (setting [9]), 0%. The compound also showed a Corn plant response rating (crop injury, 0 = no effect, 100 = complete kill) at 125 g/ha in the experiment on corn (Zea mays) (setting [7]) of 0%.
`CCc1ccc([C@H]2CNC(=S)[C@@H]2C(=O)Nc2cccc(F)c2F)cc1` [Compound 762]: the pest or weed control at 125 g/ha in experiment [1] (setting [5]) came to 90%; in experiment [2] (setting [6]), 0%; in experiment [3] (setting [8]), 0%; in experiment [4] (setting [9]), 0%. The Corn plant response rating (crop injury, 0 = no effect, 100 = complete kill) at 125 g/ha in the experiment with corn (Zea mays) (setting [7]) worked out at 0%.
Consider `O=C1NC[C@H](c2cscn2)[C@H]1C(=O)Nc1ccccc1F` [Compound 752], for which the pest or weed control at 125 g/ha turned out to be 60% in experiment [1] (setting [5]), 0% in experiment [2] (setting [6]), 20% in experiment [3] (setting [8]) and 20% in experiment [4] (setting [9]). For the same compound, the Corn plant response rating (crop injury, 0 = no effect, 100 = complete kill) at 125 g/ha in the experiment with corn (Zea mays) (setting [7]) was 0%.
Regarding `Cc1cc([C@H]2CNC(=O)[C@@H]2C(=O)Nc2ccc(F)cc2F)ccc1Cl` [Compound 791], the pest or weed control at 125 g/ha in experiment [1] (setting [5]) stood at 60%; in experiment [2] (setting [6]), 0%; in experiment [3] (setting [8]), 0%; in experiment [4] (setting [9]) it was 0%. Moreover, the Corn plant response rating (crop injury, 0 = no effect, 100 = complete kill) at 125 g/ha with corn (Zea mays) (setting [7]) is 0%.
`Cc1cccc([C@H]2CN(C)C(=O)[C@@H]2C(=O)Nc2cccc(F)c2C)c1` [Compound 1233]: the pest or weed control at 125 g/ha in experiment [1] (setting [10]) is 80%; in experiment [2] (setting [11]) it was 0%; in experiment [3] (setting [14]), 0%; in experiment [4] (setting [16]), 40%. Further, the pest or weed control at 500 g/ha worked out at 80% in experiment [1] (postemergence), 40% in experiment [2] (setting [12]), 30% in experiment [3] (setting [15]) and 50% in experiment [4] (setting [17]). Besides, the plant injury at 125 g/ha in the experiment on corn (Zea mays) (setting [13]) stood at 70%. In addition, the plant injury at 500 g/ha in the experiment with corn (Zea mays) (postemergence) is 80%.
For `CSc1ccccc1NC(=O)[C@H]1C(=O)N(C)C[C@@H]1c1ccc(C#N)cc1` [Compound 1230], the pest or weed control at 125 g/ha in experiment [1] (setting [10]) was 30%; in experiment [2] (setting [11]) it was 0%; in experiment [3] (setting [14]) it was 0%; in experiment [4] (setting [16]), 0%. Also, the pest or weed control at 500 g/ha was found to be 70% in experiment [1] (postemergence), 0% in experiment [2] (setting [12]), 0% in experiment [3] (setting [15]) and 0% in experiment [4] (setting [17]). The plant injury at 125 g/ha in the experiment with corn (Zea mays) (setting [13]) stood at 0%. In addition, the plant injury at 500 g/ha in the experiment on corn (Zea mays) (postemergence) was determined as 0%.
Regarding `CS(=O)(=O)c1ccccc1NC(=O)[C@H]1C(=O)N(C2CC2)CC[C@@H]1c1cccc(C(F)(F)F)c1` [Compound 927], the pest or weed control at 125 g/ha was determined as 0% in experiment [1] (Postemergence, visual injury after approximately 10 d, 0 to 100 scale where 0 is no effect and 100 is complete control, read-out: Plant response rating, Barnyardgrass); 0% in experiment [2] (Postemergence, visual injury after approximately 10 d, 0 to 100 scale where 0 is no effect and 100 is complete control, read-out: Plant response rating, Blackgrass); 0% in experiment [3] (Postemergence, visual injury after approximately 10 d, 0 to 100 scale where 0 is no effect and 100 is complete control, read-out: Plant response rating, Ragweed); 0% in experiment [4] (Postemergence, visual injury after approximately 10 d, 0 to 100 scale where 0 is no effect and 100 is complete control, read-out: Plant response rating, Ryegrass, Italian). In the experiment on corn (Zea mays) (Postemergence, 0 to 100 scale where 0 is no effect and 100 is complete control), the Corn plant response rating (crop injury, 0 = no effect, 100 = complete kill) at 125 g/ha came to 0%.
Turning to `COc1cc([C@H]2CN(C)C(=O)[C@@H]2C(=O)Nc2ccccc2SC)cc(OC)c1OC` [Compound 1218], the pest or weed control at 125 g/ha in experiment [2] (setting [11]), in experiment [3] (setting [14]) and in experiment [4] (setting [16]) was 0% each time. Moreover, the pest or weed control at 500 g/ha in experiment [2] (setting [12]), in experiment [3] (setting [15]) and in experiment [4] (setting [17]) was 0% in each case. Also, the plant injury at 125 g/ha in the experiment on corn (Zea mays) (setting [13]) came to 0%. Moreover, the plant injury at 500 g/ha with corn (Zea mays) (postemergence) was 0%.
As for `CN1C[C@H](c2ccc(C(F)(F)F)nc2)[C@@H](C(=O)Nc2ccc(F)c(F)c2F)C1=O` [Compound 1373], the pest or weed control at 125 g/ha in experiment [2] (setting [18]) came to 50%; in experiment [3] (setting [22]), 60%; in experiment [4] (setting [24]), 30%. Besides, the pest or weed control at 500 g/ha worked out at 60% in experiment [2] (setting [19]), 70% in experiment [3] (setting [23]) and 50% in experiment [4] (setting [25]). In addition, the plant injury at 125 g/ha in the experiment with corn (Zea mays) (setting [20]) is 90%. The Corn plant response rating (crop injury, 0 = no effect, 100 = complete kill) at 500 g/ha with corn (Zea mays) (setting [21]) was 90%.
On to `COc1cc(C(F)(F)F)ccc1[C@H]1CNC(=O)[C@@H]1C(=O)Nc1cccc(F)c1F` [Compound 1203], for which the pest or weed control at 125 g/ha was found to be 20% in experiment [2] (setting [11]), 20% in experiment [3] (setting [14]) and 0% in experiment [4] (setting [16]). The pest or weed control at 500 g/ha in experiment [2] (setting [12]) was 60%; in experiment [3] (setting [15]) it was 30%; in experiment [4] (setting [17]), 0%. The plant injury at 125 g/ha in the experiment on corn (Zea mays) (setting [13]) was found to be 40%. Further, in the experiment with corn (Zea mays) (postemergence), the plant injury at 500 g/ha was 70%.
As to `COc1ccc([C@H]2CN(C)C(=O)[C@@H]2C(=O)Nc2ccccc2SC)c(OC)c1` [Compound 1216], the pest or weed control at 125 g/ha in experiment [2] (setting [11]), in experiment [3] (setting [14]) and in experiment [4] (setting [16]) was 0% throughout. The pest or weed control at 500 g/ha in experiment [2] (setting [12]), in experiment [3] (setting [15]) and in experiment [4] (setting [17]) was 0% in each case. For the same compound, the plant injury at 125 g/ha in the experiment on corn (Zea mays) (setting [13]) came to 0%. The plant injury at 500 g/ha in the experiment with corn (Zea mays) (postemergence) stood at 0%.
`CSc1ccccc1NC(=O)[C@H]1C(=O)N(C)C[C@@H]1c1ccc(F)c(C)c1` [Compound 1312]: the values for the pest or weed control at 125 g/ha in experiment [2] (setting [18]), in experiment [3] (setting [22]) and in experiment [4] (setting [24]) were 50%, 0% and 30%, respectively. Moreover, the pest or weed control at 500 g/ha in experiment [2] (setting [19]) came to 70%; in experiment [3] (setting [23]), 70%; in experiment [4] (setting [25]), 50%. The plant injury at 125 g/ha with corn (Zea mays) (setting [20]) worked out at 40%. In addition, the Corn plant response rating (crop injury, 0 = no effect, 100 = complete kill) at 500 g/ha in the experiment with corn (Zea mays) (setting [21]) was found to be 90%.
